In a compilation of properties of binary mixtures (doi:10.1039/c3ra40303c):

Test: xn = mol fraction of the nth substance listed
Settings: 101 kPa

CC(O)C(=O)[O-].C[N+](C)(C)CCO + CCO
viscosity [mPa·s]
Settings | x2 = 0 | x2 = 0.1039 | x2 = 0.2011 | x2 = 0.2996 | x2 = 0.3999 | x2 = 0.5003 | x2 = 0.601 | x2 = 0.7013 | x2 = 0.7987 | x2 = 0.8996
293.15 K | 818 | 553 | 365 | – | 132.5 | 73.48 | 39.35 | – | – | 3.602
298.15 K | 559 | 388 | 263.7 | 165.1 | 101.5 | 57.11 | 31.94 | 14.73 | – | 3.207
303.15 K | 393 | 277.4 | 193.2 | 123.9 | 78.06 | 45.19 | – | 12.36 | 6.351 | –
308.15 K | 283.9 | 203.7 | – | 94.9 | 61.01 | 36.35 | 21.38 | 10.49 | 5.524 | 2.548
313.15 K | 209.9 | 152.9 | 110.8 | 74.08 | 48.57 | 29.65 | 17.83 | 8.99 | 4.841 | 2.286
318.15 K | – | 117.2 | 86.3 | 58.82 | 39.27 | 24.51 | – | 7.773 | 4.27 | 2.059
323.15 K | 122.3 | – | 68.43 | 47.45 | 32.22 | – | 12.83 | 6.779 | – | 1.862
328.15 K | 95.9 | – | 55.07 | 38.8 | 26.76 | 17.33 | – | 5.952 | – | 1.685
333.15 K | 76.5 | – | 44.95 | 32.13 | 22.49 | 14.8 | – | 5.255 | 3.041 | 1.525
338.15 K | 61.9 | 47.9 | 37.15 | 26.9 | – | 12.76 | 8.445 | 4.66 | 2.747 | 1.38
343.15 K | 50.76 | 39.73 | 31.06 | 22.76 | 16.36 | 11.09 | 7.459 | 4.145 | 2.498 | 1.265
